For assay [1], the target named is T1, PBP3 from Escherichia coli (Escherichia coli, UniProt P0AD68).
T1 construct: made in house
Put plainly: Fluorescence polarization competition binding assay with Bocillin-FL. From the text:
To determine the ability of boronic acid-based test PBP inhibitors to bind Penicillin Binding Proteins (PBPs), Bocillin-FL (fluorescently-labeled penicillin V; ThermoFisher Scientific) was used in a fluorescence polarization (FP) competition binding assay to assess boronic acid PBP inhibitor binding to PBP3 from Escherichia coli. PBP3 from Escherichia coli was cloned and purified as described previously (King, D. T, et al., ACS Infectious Diseases 2015, 1, 175-184). To establish assay conditions for competition binding, an enzyme titration/saturation binding experiment was performed. Bocillin-FL was prepared at […] in a buffer comprised of 50 mM Hepes (pH 8.0), 300 mM NaCl and 5% (v/v) glycerol. Saturation binding was performed by mixing […] of PBP3 ranging in concentrations from […] with 40 μl of the 0.2 μM Bocillin-FL solution, in individual wells of a black 384-well microplate. FP was measured immediately upon addition of PBP3 (Ex, Em), using a Cytation3 (BioTek) microplate reader and measured continuously for 60 minutes. […] The competition binding assay was validated using the beta-lactam ampicillin, with Bocillin-FL at a final concentration of 0.1 μM, PBP3 at a final concentration of 1.5 μM and concentrations of ampicillin from 0-1000 μM. PBP3 was incubated with ampicillin at different concentrations in a black 384-well microplate (Corning) for 30 minutes, then Bocillin-FL added and the FP immediately measured for 60 minutes. […] Binding assays for boronic acid PBP inhibitors were performed in an identical fashion. Representative results are shown in Table 3, where A represents a potency of >500 μM, B represents a potency between 30 μM and 500 μM inclusive, and C represents a potency of <30 μM. NT=Not Tested.

The target of assay [2] is T2, PBP1b from Escherichia coli (Escherichia coli, UniProt P02919).
T2 construct: made in house
Put plainly: Radioligand competition binding assay with 14C-labeled boronic acid probe (Example 96). Particulars: 14C-labeled probe 96 at 20 μM, PBP 0.1 μM; read-out: E. coli K12 PBP1b EC50. From the text:
(§1) To determine the ability of boronic acid-based test PBP inhibitors to bind Penicillin Binding Proteins (PBPs), a radio-labelled boronic acid PBP inhibitor (Example 96) was used in competition binding assays to determine boronic acid PBP inhibitor binding to PBP1a or PBP1b from Escherichia coli. PBP1a and PBP1b were purified as described previously (Bertsche, U.; et al., J. Biol. Chem. 2005, 280 (45), 38096-38101; Born, P.; et al., J Biol. Chem. 2006. 281 (37), 26985-26993). To establish assay conditions for competition binding, an enzyme titration/saturation binding experiment was performed. Saturation binding was performed in a buffer comprised of 20 mM Tris (pH 7.5), 500 mM NaCl and 0.1% (v/v) TritonX-100, with PBP1a/PBP1b at a final concentration of 0.1 μM and 96 at final concentrations ranging from 0-100 μM. Mixtures were incubated for 60 minutes, then applied to Zeba Spin Desalting columns or plates (ThermoFisher Scientific) and centrifuged at 1000-1500×g for 2 minutes. The flow through, containing PBP bound with 96, was recovered and 100 μL mixed with 5 mL of UltimaGold liquid scintillation cocktail (Perkin Elmer), and the radioactivity counted using a Beckman Coulter LS 6500 Multipurpose scintillation counter. PBP binding of 96 approached saturation at 20 μM of ^14C-labeled probe. The competition binding assay was validated using the beta-lactam ampicillin, with 96 at a final concentration of 20 μM, PBP1a/PBP1b at a final concentration of 0.1 μM. PBP1a/PBP1b was incubated with ampicillin in a 96-well microplate for 60 minutes, then 96 was added and the mixtures incubated for an additional 60 minutes. The mixtures were then applied to Zeba Spin desalting plates and centrifuged at 1000×g for 2 minutes. The flow through was recovered and 100 μl mixed with 5 ml of UltimaGold liquid scintillation cocktail and the radioactivity counted. Ampicillin inhibited binding of 96 with an EC50 (the concentration of inhibitor required to reduce binding of 96 by 50%) of less than 0.5 μM. Binding assays with boronic acid PBP inhibitors were performed in an identical fashion. The potency of boronic acid PBP inhibitors was reported as the EC50 value.
(§2) Representative results are shown in Table 5, where A represents a potency of >100 μM, B represents a potency between 10 μM and 100 μM inclusive, and C represents a potency of <10 μM. NT=Not Tested.
A general note: Displacement assays read how much labelled ligand stays bound in the presence of the test substance.

Assay [3] deals with S. aureus ATCC 29213. Put plainly: Broth microdilution MIC assay. It is filed as cell-based. As to conditions: Staphylococcus aureus, ATCC29213; broth microdilution, 16-20 hours at 37° C.; read-out: S. aureus 29213 MIC. The essentials:
(§3)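 Colonies from Mueller Hinton II agar grown 3-5 h at 37° C in cation-adjusted MH broth; OD600-adjusted inoculum, 5×10^5 CFU/mL final, added to 2-fold compound series. 16-20 h, 37° C. Visual MIC, no-growth endpoint.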
(In general: In broth dilution the organism is exposed to a series of concentrations in liquid medium.)

Assay [4] concerns hyper-permeable E. coli 901C. Put plainly: Broth microdilution MIC assay. Particulars: Escherichia coli, read-out: E. coli 901C MIC. It is filed as cell-based. In a few lines: as §3
Assay [5] has as its target T3, PBP1a from Escherichia coli (Escherichia coli, UniProt P02918).
T3 construct: made in house
Put plainly: Radioligand competition binding assay with 14C-labeled boronic acid probe (Example 96). Particulars: PBP 0.1 μM.
From the text: as §1, §2

The test system of assay [6] is E. coli DH5α/pLBII. Put plainly: Broth microdilution MIC assay, empty vector control strain. It is filed as cell-based. As to conditions: Escherichia coli, read-out: E. coli DH5α/pLBII Microbiological Activity (MIC). In a few lines: (§4)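 CLSI broth microdilution in cation-supplemented Mueller-Hinton broth, 2-fold compound dilutions, 5×10^5 CFU/mL inoculum, 16-20 h at 37° C, MIC read visually as lowest concentration without growth. E. coli DH5α carries CTX-M15 on pLBII under Lac promoter, or empty pLBII as control.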

Assay [7] deals with E. coli DH5α/pLBII-CTX-M15. Put plainly: Broth microdilution MIC assay, engineered strain producing CTX-M15. Particulars: Escherichia coli, read-out: E. coli DH5α/pLBII-CTX-M15 Microbiological Activity (MIC). It is filed as cell-based, Escherichia coli. In a few lines:
as §4

The mark [8] stands for this setting: E. coli K12 PBP1a EC50, 14C-labeled probe 96 at 20 μM.
Setting [9] is: 14C-labeled probe 96 at 20 μM, read-out: E. coli K12 PBP1a EC50.

EC50 and MIC data for 10 compounds are collected here from patent US11332485B2, “Penicillin-binding protein inhibitors” (priority 2017, dated 2022).

Like-named read-outs stand apart in the source and are kept apart here.

T3 sequence (P02918 whole entry): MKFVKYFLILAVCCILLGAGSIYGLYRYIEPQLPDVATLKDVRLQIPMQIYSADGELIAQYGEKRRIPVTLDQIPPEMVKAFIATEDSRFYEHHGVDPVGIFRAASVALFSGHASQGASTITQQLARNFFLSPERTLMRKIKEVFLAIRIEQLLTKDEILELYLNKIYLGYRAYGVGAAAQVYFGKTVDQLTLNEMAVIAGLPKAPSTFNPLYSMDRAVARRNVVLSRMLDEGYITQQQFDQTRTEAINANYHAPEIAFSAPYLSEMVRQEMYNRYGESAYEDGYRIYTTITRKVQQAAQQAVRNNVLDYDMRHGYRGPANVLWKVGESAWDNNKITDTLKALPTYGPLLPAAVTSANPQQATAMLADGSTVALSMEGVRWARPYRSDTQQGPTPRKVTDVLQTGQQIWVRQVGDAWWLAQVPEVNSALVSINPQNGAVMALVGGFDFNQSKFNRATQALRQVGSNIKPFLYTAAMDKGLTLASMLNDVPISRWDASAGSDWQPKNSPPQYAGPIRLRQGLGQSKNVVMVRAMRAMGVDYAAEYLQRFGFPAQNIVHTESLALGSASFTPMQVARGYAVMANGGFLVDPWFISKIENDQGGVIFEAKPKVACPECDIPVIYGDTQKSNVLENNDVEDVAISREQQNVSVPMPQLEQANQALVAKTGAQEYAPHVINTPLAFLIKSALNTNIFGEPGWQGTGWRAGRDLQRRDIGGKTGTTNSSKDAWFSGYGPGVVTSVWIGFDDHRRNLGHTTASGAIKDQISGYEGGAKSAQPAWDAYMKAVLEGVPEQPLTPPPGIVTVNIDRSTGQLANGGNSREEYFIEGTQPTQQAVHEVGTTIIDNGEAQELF
T1 sequence (P0AD68 1-577): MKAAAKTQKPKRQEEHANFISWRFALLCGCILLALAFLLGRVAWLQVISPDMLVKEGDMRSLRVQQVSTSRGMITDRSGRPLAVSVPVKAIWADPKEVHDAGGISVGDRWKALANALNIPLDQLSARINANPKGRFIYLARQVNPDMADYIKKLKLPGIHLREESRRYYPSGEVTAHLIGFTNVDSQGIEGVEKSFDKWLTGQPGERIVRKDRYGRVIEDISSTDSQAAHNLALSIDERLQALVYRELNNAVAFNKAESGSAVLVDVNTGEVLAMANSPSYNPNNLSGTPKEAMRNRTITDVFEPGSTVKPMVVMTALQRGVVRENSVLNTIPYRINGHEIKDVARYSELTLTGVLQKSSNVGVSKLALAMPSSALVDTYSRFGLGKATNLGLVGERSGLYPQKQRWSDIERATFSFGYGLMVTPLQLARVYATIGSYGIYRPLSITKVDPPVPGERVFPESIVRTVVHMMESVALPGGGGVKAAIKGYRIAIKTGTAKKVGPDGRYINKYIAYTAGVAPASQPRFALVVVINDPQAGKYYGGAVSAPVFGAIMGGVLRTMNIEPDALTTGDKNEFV
T2 sequence (P02919 whole entry): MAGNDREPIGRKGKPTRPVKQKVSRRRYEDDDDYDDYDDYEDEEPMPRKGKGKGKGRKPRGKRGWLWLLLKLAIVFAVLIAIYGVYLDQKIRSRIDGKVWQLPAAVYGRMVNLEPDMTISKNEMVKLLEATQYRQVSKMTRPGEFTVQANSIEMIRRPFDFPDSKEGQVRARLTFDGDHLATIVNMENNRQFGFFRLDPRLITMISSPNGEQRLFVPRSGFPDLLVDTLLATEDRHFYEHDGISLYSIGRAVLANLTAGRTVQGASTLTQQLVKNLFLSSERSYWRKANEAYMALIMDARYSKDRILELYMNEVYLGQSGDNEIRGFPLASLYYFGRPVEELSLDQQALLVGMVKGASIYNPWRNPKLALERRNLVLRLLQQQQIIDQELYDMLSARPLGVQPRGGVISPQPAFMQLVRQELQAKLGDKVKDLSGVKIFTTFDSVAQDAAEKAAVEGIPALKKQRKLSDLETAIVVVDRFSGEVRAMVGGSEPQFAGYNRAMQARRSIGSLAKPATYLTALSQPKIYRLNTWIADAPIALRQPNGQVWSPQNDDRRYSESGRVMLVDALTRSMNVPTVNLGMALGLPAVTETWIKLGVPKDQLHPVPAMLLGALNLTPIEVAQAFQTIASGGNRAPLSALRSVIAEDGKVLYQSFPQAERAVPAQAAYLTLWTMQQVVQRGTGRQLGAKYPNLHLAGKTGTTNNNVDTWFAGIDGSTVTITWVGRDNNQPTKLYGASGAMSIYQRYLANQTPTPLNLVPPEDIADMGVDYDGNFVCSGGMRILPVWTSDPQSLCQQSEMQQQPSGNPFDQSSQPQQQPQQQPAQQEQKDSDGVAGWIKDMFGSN

Broadly, the EC50 is the midpoint of the concentration-response curve. As for `CCN1CCN(C(=O)NC(Cc2ccccc2)C(=O)N[C@H]2Cc3cccc(C(=O)O)c3OB2O)C(=O)C1=O` (stereo partly drawn) [Example 79, (3R)-3-(2-(4-ethyl-2,3-dioxopiperazine-1-carboxamido)-3-phenylpropanamido)-2-hydroxy-3,4-dihydro-2H-benzo[e][1,2]oxaborinine-8-carboxylic acid], the concentration giving a half-maximal response (EC50) in assay [1] was 30 to 500 µM; in assay [2], less than 10 µM. Moreover, the MIC in assay [3] and in assay [4] was less than 64 µg/mL in each case.
With `Nc1nc(C(NC(=O)N2CCS(=O)(=O)CC2)C(=O)N[C@H]2Cc3cccc(C(=O)O)c3OB2O)cs1` (stereo partly drawn) [Example 65, (3R)-3-(2-(2-aminothiazol-4-yl)-2-(1,1-dioxidothiomorpholine-4-carboxamido)acetamido)-2-hydroxy-3,4-dihydro-2H-benzo[e][1,2]oxaborinine-8-carboxylic acid], the EC50 in assay [1] was 30 to 500 µM; in assay [5] (setting [8]), less than 10 µM. The MIC in assay [3] was 64 to 128 µg/mL; in assay [4], less than 64 µg/mL; in assay [6] it was 32 to 64 µg/mL; in assay [7] it was 32 to 64 µg/mL.
`CN1CCN(C(=O)NC(C(=O)N[C@H]2Cc3cccc(C(=O)O)c3OB2O)c2csc(N)n2)C(=O)C1=O` (stereo partly drawn) [Example 43, (3R)-3-(2-(2-aminothiazol-4-yl)-2-(4-methyl-2,3-dioxopiperazine-1-carboxamido)acetamido)-2-hydroxy-3,4-dihydro-2H-benzo[e][1,2]oxaborinine-8-carboxylic acid]: the figures for the concentration for a half-maximal effect (EC50) in assay [1] and in assay [5] (setting [9]) were 30 to 500 µM and greater than 100 µM, respectively. Moreover, the MIC in assay [3] was 64 to 128 µg/mL; in assay [4], less than 64 µg/mL; in assay [6], 32 to 64 µg/mL; in assay [7], 32 to 64 µg/mL.
On to `CCN1CCN(C(=O)N[C@@H](C(=O)N[C@H]2Cc3cccc(C(=O)O)c3OB2O)[C@H](C)O)C(=O)C1=O` [Example 47, (R)-3-((2R,3S)-2-(4-Ethyl-2,3-dioxopiperazine-1-carboxamido)-3-hydroxy-butanamido)-2-hydroxy-3,4-dihydro-2H-benzo[e][1,2]oxaborinine-8-carboxylic acid], for which the EC50 in assay [1] was greater than 500 µM; in assay [5] (setting [9]), less than 10 µM. The MIC in assay [3] was greater than 128 µg/mL; in assay [4], less than 64 µg/mL; in assay [6], 8 to 16 µg/mL; in assay [7] it was 8 to 16 µg/mL.
With `Nc1nc(C(=O)NC(C(=O)N[C@H]2Cc3cccc(C(=O)O)c3OB2O)c2csc(N)n2)cs1` (stereo partly drawn) [Example 17, (3R)-3-(2-(2-aminothiazol-4-yl)-2-(2-aminothiazole-4-carboxamido)acetamido)-2-hydroxy-3,4-dihydro-2H-benzo[e][1,2]oxaborinine-8-carboxylic acid], the results for the EC50 in assay [1] and in assay [5] (setting [9]) were 30 to 500 µM and greater than 100 µM, respectively. The MIC in assay [3] was less than 64 µg/mL; in assay [4], less than 64 µg/mL; in assay [6] it was 32 to 64 µg/mL; in assay [7], 32 to 64 µg/mL.
For `Nc1nc(C(NC(=O)N2CCN(C3CC3)C(=O)C2=O)C(=O)N[C@H]2Cc3cccc(C(=O)O)c3OB2O)cs1` (stereo partly drawn) [Example 44, (3R)-3-(2-(2-aminothiazol-4-yl)-2-(4-cyclopropyl-2,3-dioxopiperazine-1-carboxamido)acetamido)-2-hydroxy-3,4-dihydro-2H-benzo[e][1,2]oxaborinine-8-carboxylic acid], the EC50 in assay [1] is 30 to 500 µM; in assay [5] (setting [9]) it was less than 10 µM. In addition, the MIC is 64 to 128 µg/mL in assay [3], less than 64 µg/mL in assay [4], 32 to 64 µg/mL in assay [6] and 32 to 64 µg/mL in assay [7].
`CCN1CCN(C(=O)NC(C(=O)N[C@H]2Cc3cc(O)cc(C(=O)O)c3OB2O)c2csc(N)n2)C(=O)C1=O` (stereo partly drawn) [Example 39, (3R)-3-(2-(2-aminothiazol-4-yl)-2-(4-ethyl-2,3-dioxopiperazine-1-carboxamido)acetamido)-2,6-dihydroxy-3,4-dihydro-2H-benzo[e][1,2]oxaborinine-8-carboxylic acid]: the EC50 fell in the range of 30 to 500 µM in assay [1] and 10 to 100 µM in assay [5] (setting [8]). Besides, the MIC in assay [3] is greater than 128 µg/mL; in assay [4] it was less than 64 µg/mL; in assay [6] it was 32 to 64 µg/mL; in assay [7], 32 to 64 µg/mL.
Take `CCN1CCN(CC(=O)NC(C(=O)N[C@H]2Cc3cccc(C(=O)O)c3OB2O)c2csc(N)n2)C(=O)C1=O` (stereo partly drawn) [Example 45, (3R)-3-(2-(2-aminothiazol-4-yl)-2-(2-(4-ethyl-2,3-dioxopiperazin-1-yl)acetamido)acetamido)-2-hydroxy-3,4-dihydro-2H-benzo[e][1,2]oxaborinine-8-carboxylic acid]: the EC50 in assay [1] is 30 to 500 µM; in assay [5] (setting [9]), less than 10 µM. In addition, the MIC in assay [3] was greater than 128 µg/mL; in assay [4], less than 64 µg/mL; in assay [6], 32 to 64 µg/mL; in assay [7] it was 32 to 64 µg/mL.
Consider `Nc1nc(C(NC(=O)N2CCNC2=O)C(=O)N[C@H]2Cc3cccc(C(=O)O)c3OB2O)cs1` (stereo partly drawn) [Example 19, (3R)-3-(2-(2-aminothiazol-4-yl)-2-(2-oxoimidazolidine-1-carboxamido)acetamido)-2-hydroxy-3,4-dihydro-2H-benzo[e][1,2]oxaborinine-8-carboxylic acid], for which the EC50 is 30 to 500 µM in assay [1] and less than 10 µM in assay [5] (setting [9]). Besides, the MIC was 64 to 128 µg/mL in assay [3], less than 64 µg/mL in assay [4], 32 to 64 µg/mL in assay [6] and 32 to 64 µg/mL in assay [7].
Consider `CCN1CCN(C(=O)N[C@@H](C(=O)N[C@H]2Cc3cccc(C(=O)O)c3OB2O)[C@@H](C)O)C(=O)C1=O` [Example 48, (R)-3-((2R,3R)-2-(4-Ethyl-2,3-dioxopiperazine-1-carboxamido)-3-hydroxy-butanamido)-2-hydroxy-3,4-dihydro-2H-benzo[e][1,2]oxaborinine-8-carboxylic acid], for which the values for the EC50 in assay [1] and in assay [5] (setting [9]) were 30 to 500 µM and less than 10 µM, respectively. Further, the MIC in assay [3] was greater than 128 µg/mL; in assay [4], less than 64 µg/mL; in assay [6] it was 8 to 16 µg/mL; in assay [7], 8 to 16 µg/mL.
